Structures are written as SMILES.

Data set [1] concerns rat primary cortical neurons.
Protocol: (§1) At DIV28, spontaneous neuronal activity obtained for 30 min in culture solution was defined as the baseline.
(§2) Data analysis was captured using AxIs suite software (Axion Biosystems Inc., version 3.6.2) and further analyzed using GraphPad Prism (version 9.00; GraphPad Software Inc., San Diego, CA). […] An active well should have more than 40% active electrodes. All wells below this threshold were discarded upon these quality criteria. For the downstream statistical analysis, the data on each MEA parameter was first expressed as the ratio of exposed wells (percentage change between baseline and the treatment) and then normalized to the average of the control within the same plate. i.e., Baseline corrected ratios of n= 7 or eight wells were averaged per condition. Each well of the MEA served as its own control, and the changes in the electrical activity elicited by the treatments were expressed as a percentage of that control activity and normalized to the wells treated with the vehicle control dimethyl sulfoxide (DMSO). […] Differences were determined using the non-parametric Wilcoxon Mann Whitney test; p-values below 0.05 were considered significant. Data are expressed as means ± S.E.M.
(§3) Thereafter, based on the effects of vehicles and positive controls, we determined the cut-off points between the different effect zones according to the key parameters selected as described in the previous subsection. The zones were defined as follows. The “no effect” zone reflects parameter changes that are most likely within vehicle variability. The “mild” and “strong” zones are differentiated bidirectionally showing mild and strong effects.
(§4) The respective hazard class was determined by a cumulative scoring of individual parameters using a scoring matrix, which was based on the following three fundamental components: (1) selection of the six key relevant parameters, (2) defining the cutoffs for the level of effect, and (3) defining weighted points per parameter for the level of hazard potential. The scoring matrix concluded with the addition of a weighted point algorithm to discriminate distinct degrees of neuronal hazard. […] The weighted points were defined on the importance of a parameter (and the direction of effect), as well as the identification of an expected hazard for different pharmacological modes of action. The overall hazard score is derived from the sum of all weighted parameters, which could be converted into a specific hazard label. The weighted points and total score range associated with the various hazard labels were optimized using an iterative process.
For data set [2] the following is noted: established from VigiBase, SIDER, Elsevier drug information and FDA prescribing information.
For data set [3] the following is noted: Supplementary Table S1; cited from earlier work.
For data set [4] the following is noted: WHO adverse drug reactions VigiBase; ref Kumlien and Lundberg, 2010; cited from earlier work.
The conditions of data set [5]: seizure ADR frequency in SIDER; ref Campillos et al., 2008; Kuhn et al., 2010; cited from earlier work.
The conditions of data set [6]: ref National library of medicine, Daylimed; cited from earlier work.
The subject of data set [7] is rat primary cortical neurons. Nature of the data set: MEA hazard scoring in rat primary cortical neuronal cultures.
Protocol: as §1, §2, §3, §4
Data set [8] deals with Male rats (Sprague-Dawley). Nature of the data set: EEG recordings and behavioral seizures in freely moving rats. It is filed as in vivo. As to conditions: freely moving rat, iv. The text has this:
Electroencephalogram (EEG) rodent studies and assessment of seizures: Male rats (n = 8) (Sprague-Dawley), 400-800 g, were surgically implanted with Stellar Implantable Transmitter (E−430001-IMP-77, Type PBT-M-C Pressure, Biopotential, Temp; TSE systems USA) and microchipped with RFID (Bio13. Therm.03V1 PLS, Biomark Inc, USA) transponder for measurements of activity and body temperature. EEG was used to confirm that convulsive activity is linked to seizurogenic activity measured on the EEG.

Turning to `NCC1(CC(=O)O)CCCCC1` [Gabapentin], the “hazard score group in Figure 3” value in data set [1] is on record as “Neuro Active to high hazard”. Also, the “Classification* (degree of seizure risk)” value in data set [2] is “Risk”. For the same compound, the “Free Cmax highest” value in data set [3] was 2.08 µM. The “Percentage seizures of total number of ADRs” value (“Percentage seizures” for short) in data set [4] is listed as 1.766%. Moreover, the “SIDER ADR on-/off-label” value in data set [5] is recorded as “postmarketing”. Also, in data set [6], the “FDA prescription information at therapeutic dose (Convulsion/ Seizure/Lower the seizure threshold/withdrawal)” value is “On label”.
As for `O=C1CN=C(c2ccccc2Cl)c2cc([N+](=O)[O-])ccc2N1` [Clonazepam], in data set [1], the “hazard score group in Figure 3” value was “Neuro Active to hazard”. Further, the “Classification* (degree of seizure risk)” value in data set [2] is on record as “Risk”. Also, the “Free Cmax highest” value in data set [3] was 0.012 µM. The “Percentage seizures” value in data set [4] was 2.831%. Moreover, the “SIDER ADR on-/off-label” value in data set [5] is on record as “not found on label”. Besides, the “FDA prescription information at therapeutic dose (Convulsion/ Seizure/Lower the seizure threshold/withdrawal)” value in data set [6] was “on label”. Also, the “hazard classification in the hazard scoring system” value in data set [7] (rat primary neurons on MEA) was “hazards”.
As for `Nc1ccncc1` [4-Aminopyridine], the EEG spikes result in data set [8] (1 mg/kg) is recorded as “significantly increased”. Also, the convulsions and seizures result in data set [8] (3 mg/kg) is “induced convulsions and seizures”. In addition, the “hazard score group in Figure 3” value in data set [1] was “Neuro Active to high hazard”. Also, the “Classification* (degree of seizure risk)” value in data set [2] was “Risk”. Also, the “Free Cmax highest” value in data set [3] is 0.24 µM. In data set [4], the “Percentage seizures” value is on record as 2.353%. Also, the “SIDER ADR on-/off-label” value in data set [5] is on record as “no frequency information”. Further, the “firing rate (weighted mean firing rate) in MEA recordings” value in data set [7] (rodent cortical neurons in vitro) is “largely increased”.
On to `CCCC(C)C1(CC)C(=O)NC(=O)NC1=O` (stereo not drawn) [Pentobarbital], for which the “hazard score group in Figure 3” value in data set [1] is reported as “Neuro Active to hazard”. Moreover, the “Classification* (degree of seizure risk)” value in data set [2] is “Risk”. Moreover, in data set [3], the “Free Cmax highest” value is 5.1 µM. Moreover, in data set [4], the “Percentage seizures” value is reported as 3.3557%. In addition, the “SIDER ADR on-/off-label” value in data set [5] is “not found on label”. In addition, the “FDA prescription information at therapeutic dose (Convulsion/ Seizure/Lower the seizure threshold/withdrawal)” value in data set [6] is “not found on label”.

The values are drawn from article PMC11170107, “Development of a new hazard scoring system in primary neuronal cell cultures for drug-induced acute neuronal toxicity identification in early drug discovery” (Frontiers in Pharmacology, 2024).
